The subject of this experiment is tumor cell suspension (glioma samples).
The mark [1] stands for this setting: FIG. 5, example A, tumor located near normal brain tissue in phylogenetic tree, 8 hours incubation, about 1/10 of highest blood concentration.
Where [2] appears, read: FIG. 5, example B, tumor located near normal brain tissue in phylogenetic tree, 8 hours incubation, about 1/10 of highest blood concentration.

Read-outs that look alike come from different tables or passages of the source.

Protocol: These drugs were classified into five following categories by pharmacological mechanism. • Alkylating agents: • 4-hydroperoxy-cyclophosphamide (CPM)(1 μg/ml), 4-hydroperoxy-ifosfamide (IFOS) (I μg/ml), melphalan (MPL) (0.5 μg/ml), carboquone (CQ) (0.1 μg/ml), nimustine (ACNU) (2 μg/ml), ranimustine (MCNU) (2 μg/ml), cisplatinum (CDDP) (0.5 μg/ml) and carboplatin (JM-8) (4 μg/ml) • Antimetabolites: • Methotrexate (MTX) (3 μg/ml), 5-fluoro uracil (5-FU) (10 μg/ml), thioinosine (6-MRP) (3μg/ml) and cytosine arabinoside (CA) (4 μg/ml) • Antibiotics: • Mitomycin C (MMC) (0.2 μg/ml), bleomycin (BLM) (1 μg/ml), peplomycin (PEP) (0.5 μg/ml), chromomycin A3 (TM) (0.01 μg/ml) and neocarsinostatin (NCS) (0.15 μg/ml) • Topoisomerase inhibitors: • Actinomycin D (ACD) (0.01 μg/ml), aclarubicin (ACR) (0.6 μg/ml), adriamycin (ADM) (0.3 μg/ml), daunomycin (DM) (0.6 μg/ml), pirarubicin (THP) (0.3 μg/ml), epirubicin (4′-EPI) (0.4 μg/ml), mitoxantrone (MIT) (0.06 μg/ml), etoposide (VP-16) (3 μg/ml) and camptothecine (CPT-11) (3 μg/ml) • Microtubule Inhibitors: • Vincristine (VCR) (0.1 μg/ml), vinblastin (VLB) (0.1 μg/ml), vindesin (VDS) (0.1 μg/ml) and paclitaxel (TAX) (0.6 μg/ml)
The in vitro concentrations of these drugs were set to about 1/10 of the highest blood concentration when administered at a dose clinically recommended, and differences in the reaction by dose were evaluated for 10 selected drugs (CPM, ACNU, CDDP, PEP, ADM, VP-16, CA, TAX, VCR). The cultured samples of these were mixed in a phosphate buffered saline (pH 7.2)/0.1% Triton X-100/0.1 mg/ml RNase/0.01% sodium azide for 15 minutes and subsequently mixed with 50 g/ml of propidium iodide (Sigma,St.Louis, Mo.) for 5 minutes. The isolated nuclei were analyzed with flow cytometer (FACScan:Becton Dickinson, Mountain view, Calif.). The efficacy of a drug was judged by shifting the nucleus of apoptosis to a low diploid (sub-G1) region and comparing reverse decrease of the peak of the thus incorporated diploid with decrease of untreated control cells. […] Decomposition and condensation of chromatin were judged as a marker of apoptosis and quantitatively evaluated by Fisher's exact test.

`CC[C@]1(O)C[C@H]2CN(CCc3c([nH]c4ccccc34)[C@@](C(=O)OC)(c3cc4c(cc3OC)N(C=O)[C@H]3[C@@](O)(C(=O)OC)[C@H](OC(C)=O)[C@]5(CC)C=CCN6CC[C@]43[C@@H]65)C2)C1` [VCR, vincristine]: the “efficacy of drug in drug sensitivity test” value (“efficacy of drug” for short) (FIG. 5, example C, tumor located slightly away from normal brain tissue in phylogenetic tree) is recorded as “effective”. Further, under “tumors having sensitivity to ACNU”, the “drug sensitivity of tumors having sensitivity to ACNU” value was “generally resistant”.

Turning to `Cc1ncc(CNC(=O)N(CCCl)N=O)c(N)n1` [ACNU, nimustine], the “efficacy of drug” value is, setting by setting: under setting [1], “effective”; under setting [2], “effective”.

For `CC(=O)O[C@H]1C(=O)[C@@]2(C)[C@H]([C@H](OC(=O)c3ccccc3)[C@]3(O)C[C@H](OC(=O)[C@H](O)[C@@H](NC(=O)c4ccccc4)c4ccccc4)C(C)=C1C3(C)C)[C@]1(OC(C)=O)CO[C@@H]1C[C@@H]2O` [TAX, paclitaxel], the “efficacy of drug” value under setting [2] is “effective”.

Consider `O=P1(N(CCCl)CCCl)NC(OO)CCO1` (stereo not shown) [CPM], for which the “efficacy of drug” value is recorded as “effective” under setting [1] and “effective” under setting [2].
